From patent publication US4382030A, “2-Acylaminomethyl-1,4-benzodiazepine derivatives and their salts, pharmaceutical compositions thereof and process for their preparation” (Kali-Chemie Pharma GmbH, priority 1979, dated 1983) come the findings set out here.

Each structure is given as a SMILES string. Where only a bound is given, the exact number is not on record here.

As usually defined, the ED50 is the midpoint of the dose-response relation.

Test [1] has as its system mice (tail flick, heat beam pain reaction). Briefly: Tail flick Test in Mice. Type of test: in vivo. The following applies: sc, 0.5 h; mouse, s.c.; 30 minutes after administration; >75% increase of reaction time in 50% of animals. As for the experimental part:
(§1) This analgesic activity has been evaluated in two pharmacological standard methods, the tail flick test in mice and the arthritis pain test in rats.
3. Tail flick Test in Mice.
This test is carried out according to the method described by D'Amour and Smith (1941), yet fed male and female mice having a body weight of 16 to 25 g are used instead of rats. Thirty minutes prior to treatment with the test compound, each mouse is placed separately in a cylindrical container in such a manner that it cannot turn itself or move forward. Its tail is positioned in a narrow groove projecting out of the container. A certain point of the tail of each animal (about 35 mm beyond the root of the tail) is subjected to the heat beam of a lamp of known strength and temperature which is positioned directly under the tail. The number of seconds which pass before the mouse moves its tail out of the light beam is determined twice, once 30 minutes and once 15 minutes prior to subcutaneous administration of the test compound (10 mg/kg). Mice which show a reaction time differing more than 25% are eliminated from the test. The reaction time is again determined 15 minutes and 30 minutes after the treatment and an increase of the reaction period of more than 75% of the average values prior to treatment in the same animal is considered as showing an analgesic effect. The ED50 (95% reliability) of each test compound 30 minutes after administration is evaluated according to the method of Litchfield and Wilcoxon (1949). The dose which increases the reaction time as compared to the reaction time prior to treatment for more than 75% in 50% of the animals is considered as ED50.
In general terms: Thermal pain tests record how soon the animal reacts.

The subject of test [2] is rats (secondary arthritis pain, mycobacterium smegmae). In words: Arthritis Pain Test in Rats. Type of test: in vivo. The note with it: po, rat, p.o., 3 hours after administration, protection in 50% of treated animals. The method, then:
as §1
2. Arthritis Pain Test in Rats.
Male rats having a weight of from 160 to 180 g are anesthetized by small i.p. injection of 20 mg/kg of sodium pentobarbital and 0.1 ml of a suspension of mycobacterium smegmae (SI 043) in liquid paraffin (0.6 mg mycobacterium/0.1 ml of oil) are injected intracutaneously into the left rear paw. Fourteen days later when a marked secondary arthritis has developed in particular in the right rear paw, the effect of the test compound is evaluated. A control-reading is taken 30 minutes prior to administration of the test compound by bending the foot joint of the right rear paw three times and counting the number of squeakings. […] Three hours after oral administration of the test compound the bending of the joint is repeated. Animals which squeak only once or not at all are considered to be protected against pain. Between about 9 and 20 rats are used per dose and the ED50 (95% reliability) is determined according to the method of Litchfield and Wilcoxon (1949). The dose which provides protection in 50% of the treated animals is taken as ED50.

With `CN1c2cc3c(cc2C(c2ccccc2)=NCC1CNC(=O)c1ccoc1)OCO3` (stereo not shown) [Compound 26, 7,8-methylenedioxy-1-methyl-2-[(furane-3-carbonyl)-aminomethyl]-5-phenyl-1H-2,3-dihydro-1,4-benzodiazepine], the ED50 in test [1] is 2 mg/kg; in test [2], less than 5.6 mg/kg.
`CN1c2cc3c(cc2C(c2ccccc2)=NCC1CNC(=O)c1ccsc1)OCO3` (stereo not shown) [Compound 41, 7,8-methylenedioxy-1-methyl-2-[(thiophene-3-carbonyl)-aminomethyl]-5-phenyl-1H-2,3-dihydro-1,4-benzodiazepine]: the ED50 came to 2.1 mg/kg in test [1] and 5.6 mg/kg in test [2].
Taken in the same sequence, the figures for `CN1c2ccccc2C(c2ccccc2)=NCC1CNC(=O)c1ccoc1` (stereo not shown) [Compound 22, 1-methyl-2-[(furane-3-carbonyl)-aminomethyl]-5-phenyl-2,3-dihydro-1,4-benzodiazepine] were 0.44 mg/kg and 14 mg/kg.
In the same order, the values of `O=C(NCC1CN=C(c2ccccc2)c2ccccc2N1)c1cccs1` (stereo not shown) [Compound 28, 2-[(thiophene-2-carbonyl)-aminomethyl]-5-phenyl-1H-2,3-dihydro-1,4-benzodiazepine] are 4.2 mg/kg and more than 32 mg/kg.
Taken in the same sequence, the figures for `CN1c2cc3c(cc2C(c2ccccc2)=NCC1CNC(=O)c1cccs1)OCO3` (stereo not shown) [Compound 24, 7,8-methylenedioxy-1-methyl-2-[(thiophene-2-carbonyl)-aminomethyl]-5-phenyl-1H-2,3-dihydro-1,4-benzodiazepine] were 3.8 mg/kg and 10 mg/kg.
On to `COc1ccc2c(c1)N(C)C(CNC(=O)c1cccs1)CN=C2c1ccc(F)cc1` (stereo not shown) [Compound 47], for which the ED50 in test [1] is 3.2 mg/kg; in test [2], less than 18 mg/kg.
In the same order, the values of `COc1ccc2c(c1)N(C)C(CNC(=O)c1ccccn1)CN=C2c1ccccc1` (stereo not shown) [Compound 30, 8-methoxy-1-methyl-2-picolinoylaminomethyl-5-phenyl-1H-2,3-dihydro-1,4-benzodiazepine] are 7 mg/kg and more than 32 mg/kg.
Taken in the same sequence, the figures for `Cc1ccc2c(c1)C(c1ccccc1F)=NCC(CNC(=O)c1ccoc1)N2C` (stereo not shown) [Compound 45, 1,7-dimethyl-2-[(furane-3-carbonyl)-aminomethyl]-5-(2-fluorophenyl)-1H-2,3-dihydro-1,4-benzodiazepine] were 3.8 mg/kg and less than 18 mg/kg.
Taken in the same sequence, the figures for `COc1ccc2c(c1)N(C)C(CNC(=O)c1sccc1C)CN=C2c1ccccc1` (stereo not shown) [Compound 23, 8-methoxy-1-methyl-2-[(3-methylthiophene-2-carbonyl)-aminomethyl]-5-phenyl-1H-2,3-dihydro-1,4-benzodiazepine] were 7.2 mg/kg and 25 mg/kg.
Consider `COc1ccc2c(c1)N(C)C(CNC(=O)c1ccoc1)CN=C2c1ccccc1C(F)(F)F` (stereo not shown) [Compound 35, 8-methoxy-1-methyl-2-[(furane-3-carbonyl)-aminomethyl]-5-(2-trifluoromethylphenyl)-1H-2,3-dihydro-1,4-benzodiazepine], for which the ED50 was 1 mg/kg in test [1] and less than 18 mg/kg in test [2].
Taken in the same sequence, the figures for `Cc1ccc(C(=O)NCC2CN=C(c3ccccc3)c3ccc(F)cc3N2C)s1` (stereo not shown) [Compound 43, 8-fluoro-1-methyl-2-[(5-methylthiophene-2-carbonyl)-aminomethyl]-5-phenyl-1H-2,3-dihydro-1,4-benzodiazepine] were 5.6 mg/kg and less than 18 mg/kg.
Taken in the same sequence, the figures for `COc1ccc2c(c1)N(C)C(CNC(=O)c1ccc(Br)s1)CN=C2c1ccc(F)cc1` (stereo not shown) [Compound 49, 8-methoxy-1-methyl-2-[(5-bromothiophene-2-carbonyl)-aminomethyl]-5-(4-fluorophenyl)-1H-2,3-dihydro-1,4-benzodiazepine] were more than 5.6 mg/kg and less than 18 mg/kg.
In the same order, the values of `CN1c2cc3c(cc2C(c2ccccc2)=NCC1CNC(=O)c1ccco1)OCO3` (stereo not shown) [Compound 25] are less than 5.6 mg/kg and less than 32 mg/kg.
Take `CN1c2cc3c(cc2C(c2ccccc2)=NCC1CNC(=O)c1ccoc1)OCCO3` (stereo not shown) [Compound 44, 7,8-ethylenedioxy-1-methyl-2-[(furane-3-carbonyl)-aminomethyl]-5-phenyl-1H-2,3-dihydro-1,4-benzodiazepine]: the ED50 in test [1] is more than 5.6 mg/kg; in test [2] it was less than 18 mg/kg.
Taken in the same sequence, the figures for `COc1ccc2c(c1)N(C)C(CNC(=O)c1ccc(Br)s1)CN=C2c1ccccc1F` (stereo not shown) [Compound 46, 8-methoxy-1-methyl-2-[(5-bromothiophene-2-carbonyl)-aminomethyl]-5-(2-fluorophenyl)-1H-2,3-dihydro-1,4-benzodiazepine] were 5.6 mg/kg and less than 18 mg/kg.
Taken in the same sequence, the figures for `COc1ccc2c(c1)N(C)C(CNC(=O)c1cccnc1)CN=C2c1ccccc1` (stereo not shown) [Compound 29, 8-methoxy-1-methyl-2-nicotinoylaminomethyl-5-phenyl-1H-2,3-dihydro-1,4-benzodiazepine] were 4 mg/kg and 30 mg/kg.
On to `CN1c2ccccc2C(c2ccccc2)=NCC1CNC(=O)c1cccn1C` (stereo not shown) [Compound 36, 1-methyl-2-[(1-methylpyrrol-2-carbonyl)-aminomethyl]-5-phenyl-1H-2,3-dihydro-1,4-benzodiazepine], for which the figures for the ED50 in test [1] and in test [2] were 2.1 mg/kg and more than 18 mg/kg, respectively.
With `COc1ccc2c(c1)N(C)C(CNC(=O)c1ccoc1)CN=C2c1ccc(F)cc1` (stereo not shown) [Compound 34, 8-methoxy-1-methyl-2-[(furane-3-carbonyl)-aminomethyl]-5-(4-fluorophenyl)-1H-2,3-dihydro-1,4-benzodiazepine], the ED50 in test [1] was 2.1 mg/kg; in test [2], 5.6 mg/kg.
Taken in the same sequence, the figures for `COc1ccc2c(c1)N(C)C(CNC(=O)c1cccn1C)CN=C2c1ccccc1` (stereo not shown) [Compound 33, 8-methoxy-1-methl-2-[(1-methylpyrrol-2-carbonyl)-aminomethyl]-5-phenyl-1H-2.3-dihydro-1,4-benzodiazepine] were 1 mg/kg and less than 18 mg/kg.
For the compound `CN1c2cc(Cl)ccc2C(c2ccccc2)=NCC1CNC(=O)c1ccoc1` (stereo not shown) [Compound 37, 8-chloro-1-methyl-2-[(furane-3-carbonyl)-aminomethyl]-5-phenyl-1H-2,3-dihydro-1,4-benzodiazepine], the ED50 was 1.2 mg/kg in test [1] and more than 18 mg/kg in test [2].
In the same order, the values of `COc1ccc2c(c1)N(C)C(CNC(=O)c1ccoc1)CN=C2c1cccc(F)c1` (stereo not shown) [Compound 42, 8-methoxy-1-methyl-2-[(furane-3-carbonyl)-aminomethyl]-5-(3-fluorophenyl)-1H-2,3-dihydro-1,4-benzodiazepine] are 5.6 mg/kg and less than 18 mg/kg.
In the same order, the values of `COc1ccc2c(c1)N(C)C(CNC(=O)c1cccs1)CN=C2c1ccccc1F` (stereo not shown) [Compound 40, 8-methoxy-1-methyl-2-[(thiophene-2-carbonyl)-aminomethyl]-5-(2-fluorophenyl)-1H-2,3-dihydro-1,4-benzodiazepine] are 1.2 mg/kg and less than 18 mg/kg.
Taken in the same sequence, the figures for `COc1ccc2c(c1)N(C)C(CNC(=O)c1ccoc1)CN=C2c1ccccc1F` (stereo not shown) [Compound 39, 8-methoxy-1-methyl-2-[(furane-3-carbonyl)-amino-methyl]-5-(2-fluorophenyl)-1H-2,3-dihydro-1,4-benzodiazepine] were 0.7 mg/kg and less than 10 mg/kg.
Turning to `COc1ccc2c(c1)N(C)C(CNC(=O)c1ccc(C)o1)CN=C2c1ccccc1` (stereo not shown) [Compound 31, 8-methoxy-1-methyl-2-[(5-methylfurane-2-carbonyl)-aminomethyl]-5-phenyl-1H-2,3-dihydro-1,4-benzodiazepine], the ED50 was found to be 4.4 mg/kg in test [1] and 30 mg/kg in test [2].
In the same order, the values of `CN1c2cc(F)ccc2C(c2ccccc2)=NCC1CNC(=O)c1ccoc1` (stereo not shown) [Compound 38, 8-fluoro-1-methyl-2-[(furane-3-carbonyl)-amino-methyl]-5-phenyl-1H-2,3-dihydro-1,4-benzodiazepine] are 0.32 mg/kg and less than 18 mg/kg.
Consider `COc1ccc2c(c1)N(C)C(CNC(=O)c1ccc(Br)s1)CN=C2c1cccc(F)c1` (stereo not shown) [Compound 48, 8-methoxy-1-methyl-2-[(5-bromothiophene-2-carbonyl)-aminomethyl]-5-(3-fluorophenyl)-1H-2,3-dihydro-1,4-benzodiazepine], for which the ED50 in test [1] was more than 5.6 mg/kg; in test [2], less than 18 mg/kg.
